Experimental data as given in US7910575B2, “Prophylactic or therapeutic agents for allergic ophthalmic diseases or allergic nasal diseases, comprising tricyclic triazolobenzazepine derivative” (Meiji Seika Kaisha, Ltd., priority 2006, dated 2011).
Values joined by “and” are separate entries in the source; they are usually repeats but may differ in a detail not shown here. Identical values can stand only once. Counter-ions that a name gives are not always drawn. Marks after values point to notes of the source that are not given here.

Key:
allergic rhinitis [1] = test: Prophylactic effect on allergic rhinitis (nasal drops immediately before induction); format: in vivo, rat; conditions: for Increase in dye leakage amount Inhibition ratio: immediately before antigen administration
Experimental: Male Sprague Dawley rats (n=6) were prepared. Bordetella pertussis (4×10^10) and 1 mg of dinitrophenylated ovalbumin (hereinafter referred to as “DNP-OA”) were subcutaneously administered into the footpad of the rats. […] After six hr from the antigen administration, Evans Blue (a dye) (50 mg/kg) was intravenously administered.
After nine hr from the induction of the allergic reaction, the nasal septal mucosa of the rats was harvested, and the weight of the tissue was measured. The tissue of the nasal septal mucosa was lysed with 1 N KOH, and the leakage amount of the dye was determined as an index of vascular permeability in the late phase of the allergic rhinitis.
In this case, physiological saline was administered instead of the antigen.
In the table, the inhibition ratio was calculated by the following equation. Inhibition(%)=100×{(B−A)−(C−A)}÷(B−A)
wherein A represents a negative control group (a nonsensitized group); B represents a control group; and C represents a medicament administered group.

allergic rhinitis [2] = test: Therapeutic effect on allergic rhinitis (nasal drops one hr after induction); format: in vivo, rat; conditions: for Dye leakage amount increase Inhibition ratio: nasal drops, one hr after administration of the antigen
Experimental: In the same manner as in Test Example 4-1, the allergic reaction was induced, and the vascular permeability in the late phase of the allergic rhinitis was measured. In this case, however, for the evaluation of the therapeutic effect, compound A, Amlexanox, and Ketotifen were administered one hr after the induction of the allergic reaction. Since greenie was leaked, the dose was doubled (10 μL) so that the dispersion of the medicament within the nasal cavities is not inhibited, and the concentration of the medicament was regulated with physiological saline to the half of the concentration in the experiment on prophylactic effect to render the dose per individual identical.
The medicament was administered one hr after the administration of the antigen.

allergic conjunctivitis [3] = test: Therapeutic effect on allergic conjunctivitis (instillation three hr after induction); format: in vivo, rat; conditions: for Tissue weight increase: 5 μL/eye three hr after induction of the allergic reaction; for therapeutic effect on allergic conjunctivitis (in words): instillation three hr after induction
Experimental: Compound A, Betamethasone, control group, and negative control group were administered at the same concentration as in Test Example 1-1, and the concentration of Betamethasone was as shown in Table 3. The test was carried out in the same manner as in Test Example 1-1, except that, three hr after the induction of the allergic reaction, for compound A, Betamethasone, control group, and negative control group were administered, the test solution was administered at a dose of 5 μL/eye to the right eye.

rabbit eye (conjunctiva) = test: Severe eye irritation test using rabbits; format: in vivo; conditions: instillation six times per day at 30 min intervals for two days
[4] = Concentration of compound A in the eye tissue after instillation; format: in vivo, rabbit
Experimental: A test solution (0.1% or 1%) of compound A in an isotonic borate buffer solution adjusted to pH 7.4 and a test solution (0.1%) of compound B in an isotonic borate buffer solution were provided, and 50 μL of each test solution was administered as ocular instillation to male rabbits.
The concentration of compound A in the eye tissue after instillation was measured as follows. At the outset, the tissue was removed from the test animals and was cryopreserved. Purified water (0.1 mL) was added to a sufficient quantity of the cryopreserved tissue and the like followed by homogenization. Thereafter, 0.5 mL of 0.1% phosphoric acid, 0.05 mL of an internal standard solution (a predetermined internal standard substance ([…]) described in WO 95/18130), 0.05 mL of acetonitrile, and 0.05 mL of purified water were added thereto. An extraction solvent (25% chloroform/diethyl ether) (8 mL) was added, and the mixture was shaken and centrifuged. Thereafter, 7 mL of the organic layer was evaporated to dryness under the negative pressure, and the residue was dissolved in 0.3 mL of a mobile phase to give an analyte. A liquid prepared by mixing and dissolving 0.55 g of tetraoxyl ammonium bromide into 450 mL of acetonitrile, 450 mL of 10 mM phosphate buffer solution, and 100 mL of methanol was used as the mobile phase. The concentration of compound A was measured by injecting 0.025 mL of the analyte into high-performance liquid chromatography (HPLC) (measurement conditions: fluorescence excitation 270 nm, emission 466 nm).
The concentration of only compound A in the eye tissue was measured because compound B is a prodrug of compound A.

allergic conjunctivitis [5] = test: Prophylactic effect on allergic conjunctivitis (instillation before induction, late phase); format: in vivo, rat; conditions: for Inhibition ratio Increase in tissue weight: Test Example 1-2, medicament concentration 0.1%, instillation before induction; for Inhibition ratio (%) Increase in tissue weight: 5 μL/eye 15 min before induction; for Inhibition ratio (%) Increase in dye leakage amount: 15 min before induction, Evans Blue
Experimental: Male SD rats were prepared. Bordetella pertussis (4×10^10) and 1 mg of dinitrophenylated ovalbumin (hereinafter often abbreviated to “DNP-OA”) were subcutaneously administered into the footpad of the rats. After 8 to 10 days from the administration, a 3% DNP-OA solution was administered to the right eye of the rats to induce an allergic reaction. In some experiments, in order to confirm dye leakage and location of edema, a dye was injected, and, in the anatomy, the coincidence of dye leakage with the location of edema was confirmed. […] After 9 hr from the induction of the allergic reaction, the eyeballs of the rats were harvested. Further, lenses, hydatoids, and the contents of the vitreous body were removed from the eyeballs, and the weight of the tissues was measured. Furthermore, the dye leakage amount in the harvested eye tissue was measured. […] The absorbance (630 nm) of Evans Blue in the supernatant was measured with Multiskan JX (manufactured by Labsystem Ltd.). The amount of the dye was regarded as a dye leakage amount. […] For the control group, 0.15 M sodium hydrogencarbonate adjusted to pH 7.2 was administered. For a negative control group (a nonsensitization group), a 3% DNP-OA solution was administered to the right eye of the nonsensitized rats, and the solvent was used into the same manner as in the control group. The medicament or the solvent was administered to the right eye (5 μL/eye) 15 min before the induction of the allergic reaction. Compound A was administered at concentrations of 0.01%, 0.1%, and 1% for studies of dose response. In the table, the inhibition ratio was calculated by the following equation.

[6] = test system: epithelial cells of cornea in human eyes; test: Toxicity against epithelial cells of cornea, 24-hr cell survival rate; format: cell-based
Description: Specifically, toxicity against epithelial cells of cornea in human eyes was studied.

allergic conjunctivitis [7] = test: Prophylactic effect on allergic conjunctivitis (instillation before induction, late phase); format: in vivo, rat
[8] = Test Example 4-2, nasal drops at concentrations of Table 9
[9] = medicament concentration 0.1%, 0.5 μg/rat, 9 hr after induction
[10] = medicament concentration 1%, 5 μg/rat, 9 hr after induction

Structure (SMILES): CC(C)c1ccc2oc3nc(N)c(C(=O)O)cc3c(=O)c2c1 [Amlexanox]
- prophylactic effect on allergic rhinitis (in words) (allergic rhinitis [1]; [8]): had prophylactic effect on allergic rhinitis
- Increase in dye leakage amount Inhibition ratio (allergic rhinitis [1]; Test Example 4-2, nasal drops, 0.25%, 25 μg/rat): 81.1% **
- Dye leakage amount increase Inhibition ratio (allergic rhinitis [2]; 0.125%, 25 μg/rat): 25.0%

Structure (SMILES): C[C@H]1C[C@H]2[C@@H]3CCC4=CC(=O)C=C[C@]4(C)[C@@]3(F)[C@@H](O)C[C@]2(C)[C@@]1(O)C(=O)COP(=O)([O-])[O-].[Na+].[Na+] [Betamethazone, betamethazone sodium phosphate, reference compound]
- Tissue weight increase (allergic conjunctivitis [3]; 0.1%): 74.8% **
- therapeutic effect on allergic conjunctivitis (in words) (allergic conjunctivitis [3]): potent therapeutic effect

Structure (SMILES): COc1cc2[nH]c(=O)c3nn[nH]c3c(=O)c2cc1OC [Compound A, 7,8-Dimethoxy-4(5H),10-dioxo-1H-1,2,3-triazolo[4,5-c][1]benzazepine]
- eye irritation (rabbit eye (conjunctiva); 0.5%): irritation was not observed at all
- eye irritation (rabbit eye (conjunctiva); 3%): only slight reddening of the conjunctiva was observed
- maximum eye tissue concentration ([4]; instillation of a 0.1% liquid): 1.29 μg/g and 4.7 μM
- concentration at 0.25 h ([4]; male, eye tissue, topical, 50 μL of 1% solution, 1% test solution, 50 μL instillation, rabbit, 0.25 hr after instillation, average ± standard error): 6090 ± 2200 ng/g
- concentration at 1 h ([4]; male, eye tissue, topical, 50 μL of 1% solution, 1% test solution, 50 μL instillation, rabbit, 1 hr after instillation): 1150 ± 830 ng/g
- concentration at 2 h ([4]; male, eye tissue, topical, 50 μL of 1% solution, 1% test solution, 50 μL instillation, rabbit, 2 hr after instillation): 1260 ± 940 ng/g
- concentration at 4 h ([4]; male, eye tissue, topical, 50 μL of 1% solution, 1% test solution, 50 μL instillation, rabbit, 4 hr after instillation): 1380 ± 540 ng/g
- concentration at 8 h ([4]; male, eye tissue, topical, 50 μL of 1% solution, 1% test solution, 50 μL instillation, rabbit, 8 hr after instillation): 660 ± 420 ng/g
- concentration at 24 h ([4]; male, eye tissue, topical, 50 μL of 1% solution, 1% test solution, 50 μL instillation, rabbit, 24 hr after instillation): 60 ± 60 ng/g
- Inhibition ratio Increase in tissue weight (allergic conjunctivitis [5]): 99.1% **
- Inhibition ratio (%) Increase in tissue weight (allergic conjunctivitis [5]; medicament concentration 0.01%, 0.05 μg/rat, eye harvested 9 hr after induction): 67.0% **
- Inhibition ratio (%) Increase in dye leakage amount (allergic conjunctivitis [5]; medicament concentration 0.01%, 0.05 μg/rat, 9 hr after induction): 74.4% **
- Inhibition ratio (%) Increase in tissue weight (allergic conjunctivitis [5]; [9]): 89.0% **
- Inhibition ratio (%) Increase in dye leakage amount (allergic conjunctivitis [5]; [9]): 83.9% **
- Inhibition ratio (%) Increase in tissue weight (allergic conjunctivitis [5]; [10]): 83.7% **
- Inhibition ratio (%) Increase in dye leakage amount (allergic conjunctivitis [5]; [10]): 87.6% **
- prophylactic effect on allergic rhinitis (in words) (allergic rhinitis [1]; Test Example 4-1, nasal drops 0.01% to 1%): effective against allergic rhinitis dose-dependently
- prophylactic effect on allergic rhinitis (in words) (allergic rhinitis [1]; [8]): had prophylactic effect on allergic rhinitis
- Increase in dye leakage amount Inhibition ratio (allergic rhinitis [1]; Test Example 4-2, nasal drops, 0.1%, 10 μg/rat): 95.7% **
- Increase in dye leakage amount Inhibition ratio (allergic rhinitis [1]; nasal drops, 0.01%, 1 μg/rat, nasal septal mucosa 9 hr after induction): 52.9% **
- Increase in dye leakage amount Inhibition ratio (allergic rhinitis [1]; nasal drops, 0.1%, 10 μg/rat, 9 hr after induction): 111.7% **
- Increase in dye leakage amount Inhibition ratio (allergic rhinitis [1]; nasal drops, 1%, 100 μg/rat, 9 hr after induction): 123.1% **
- Tissue weight increase (allergic conjunctivitis [3]; 0.01%): 70.3% **
- Tissue weight increase (allergic conjunctivitis [3]; 0.1%): 99.9% **
- Tissue weight increase (allergic conjunctivitis [3]; 1%): 103.7% **
- therapeutic effect on allergic conjunctivitis (in words) (allergic conjunctivitis [3]): potent therapeutic effect
- non-toxic concentration relative to the maximum eye tissue concentration ([6]; 0.3 mM versus 4.7 μM (0.1% liquid instillation)): not less than 60 times
- toxicity against epithelial cells of cornea (24-hr cell survival rate) ([6]; concentration range of 100 nM to 0.3 mM): any toxicity was not observed
- therapeutic effect on allergic rhinitis (in words) (allergic rhinitis [2]; nasal drops one hr after antigen): exhibited therapeutic effect on the allergic rhinitis
- Dye leakage amount increase Inhibition ratio (allergic rhinitis [2]; 0.05%, 10 μg/rat): 93.8% **

Structure (SMILES): O=C(O)c1cc(=O)c2c(OCC(O)COc3cccc4oc(C(=O)O)cc(=O)c34)cccc2o1 [Cromoglycate, cromoglycate sodium]
- Inhibition ratio Increase in tissue weight (allergic conjunctivitis [7]; Test Example 1-2, medicament concentration 2%): 14.7%
- Increase in dye leakage amount Inhibition ratio (allergic rhinitis [1]; Test Example 4-2, nasal drops, 2%, 200 μg/rat): 2.9%

Structure (SMILES): CC(=O)[C@@]1(O)CC[C@H]2[C@@H]3C[C@H](C)C4=CC(=O)C=C[C@]4(C)[C@@]3(F)[C@@H](O)C[C@@]21C [Fluorometholone, fluorometholone, reference compound]
- Inhibition ratio Increase in tissue weight (allergic conjunctivitis [5]): 59.4% *

Structure (SMILES): CCC(=O)O[C@]1(C(=O)SCF)[C@H](C)C[C@H]2[C@@H]3C[C@H](F)C4=CC(=O)C=C[C@]4(C)[C@@]3(F)[C@@H](O)C[C@@]21C [Fluticasone, fluticasone propinate]
- Increase in dye leakage amount Inhibition ratio (allergic rhinitis [1]; Test Example 4-2, nasal drops, 0.051%, 5.1 μg/rat): 106.0% **

Structure (SMILES): CN1CCC(=C2c3ccccc3CC(=O)c3sccc32)CC1 [Ketotifen, ketotifen fumarate]
- Inhibition ratio Increase in tissue weight (allergic conjunctivitis [7]; Test Example 1-2, medicament concentration 0.05%): 13.4%
- prophylactic effect on allergic rhinitis (in words) (allergic rhinitis [1]; [8]): had prophylactic effect on allergic rhinitis
- Increase in dye leakage amount Inhibition ratio (allergic rhinitis [1]; Test Example 4-2, nasal drops, 0.055%, 5.5 μg/rat): 49.4%
- Dye leakage amount increase Inhibition ratio (allergic rhinitis [2]; 0.0275%, 5.5 μg/rat): 48.6%

Structure (SMILES): C[C@@H]1CN([C@H]2CC[C@](C#N)(c3ccc(F)cc3)CC2)CC[C@]1(C(=O)O)c1ccccc1 [Levocabastine, levocabastine hydrochloride]
- Inhibition ratio Increase in tissue weight (allergic conjunctivitis [7]; Test Example 1-2, medicament concentration 0.025%): 11.1%
- Increase in dye leakage amount Inhibition ratio (allergic rhinitis [1]; Test Example 4-2, nasal drops, 0.025%, 2.5 μg/rat): 22.7%
